# According to ChEMBL document CHEMBL1201862, “PubChem BioAssay data set” (2004):
# Calls of active or inactive are those of the source. For most assays here, no stated cut-off is given here; in the data, actives have a measured EC50 and inactives only a lower limit.
# Columns and labels:
# [1] = test system: Streptococcus sp. 'group A'; assay: growth inhibition of control SK(-) GAS strain, dose response, counter-screen for streptokinase expression inhibitor project, luminescence, kanamycin, BacTiterGlo, confirmation (AID 1900); assay type: functional, organism-based
# [2] = target: T1, Streptokinase A (Streptococcus pyogenes serotype M1, UniProt P10520); assay: S. pyogenes streptokinase expression inhibitors, potency, dose response, plasminogen activation absorbance, OD405 (AID 1914); assay type: functional, Streptococcus pyogenes M1 GAS;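 further: secreted streptokinase activity via plasminogen activation per viability signal from cell pellet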
# T1 sequence (P10520 whole entry): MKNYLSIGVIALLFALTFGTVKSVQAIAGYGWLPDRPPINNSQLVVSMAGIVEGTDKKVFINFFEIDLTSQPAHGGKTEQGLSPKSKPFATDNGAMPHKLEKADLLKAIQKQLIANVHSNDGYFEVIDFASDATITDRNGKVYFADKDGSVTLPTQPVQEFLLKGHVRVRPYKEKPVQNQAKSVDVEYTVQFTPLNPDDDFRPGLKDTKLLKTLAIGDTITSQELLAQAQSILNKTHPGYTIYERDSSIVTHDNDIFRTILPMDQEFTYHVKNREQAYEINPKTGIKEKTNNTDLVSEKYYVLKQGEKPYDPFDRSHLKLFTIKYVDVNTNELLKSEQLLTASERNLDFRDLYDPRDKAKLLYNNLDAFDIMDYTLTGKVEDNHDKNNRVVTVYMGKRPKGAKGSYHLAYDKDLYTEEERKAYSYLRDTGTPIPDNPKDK
# [3] = test system: Streptococcus; assay: Group A Streptococcus viability loss, dose response, counter-screen for streptokinase expression inhibitor project, luminescence, BacTiterGlo (AID 1915); assay type: functional, organism-based;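 further: potency for reduction of bacterial viability or growth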
# [4] = target: Luciferin 4-monooxygenase (Photinus pyralis, UniProt P08659); assay: firefly luciferase enzyme inhibitors, dose response, biochemical, luminescence (AID 1891)
# [5] = Luminescence Cell-Based Dose Confirmation HTS to Identify Inhibitors of Platelet Dense Granule Release. [Related pubchem assays: 1663 (Primary HTS), 1678 (Summary of Project)]; assay type: functional
# [6] = test system: INS1; assay: beta cell apoptosis inhibitors, cytokine rescue, dose response, luminescence, retest (AID 449756); assay type: functional, cell-based; conditions: Rattus norvegicus;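 further: cell death triggered by IL-1 beta plus TNF-alpha plus IFN-gamma mixture; protective hits raise ATP signal compared with cytokine alone wells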
# [7] = target: T2, RNA-binding protein pos-1 (Caenorhabditis elegans, UniProt G5EF15); assay: inhibitors of POS-1/mex-3 RNA binding, dose response, biochemical, fluorescence polarization (AID 1964);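 further: purified POS-1 fused to maltose binding protein made in E. coli; potency of compounds blocking POS-1 binding to fluorescent RNA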
# T2 sequence (G5EF15 whole entry): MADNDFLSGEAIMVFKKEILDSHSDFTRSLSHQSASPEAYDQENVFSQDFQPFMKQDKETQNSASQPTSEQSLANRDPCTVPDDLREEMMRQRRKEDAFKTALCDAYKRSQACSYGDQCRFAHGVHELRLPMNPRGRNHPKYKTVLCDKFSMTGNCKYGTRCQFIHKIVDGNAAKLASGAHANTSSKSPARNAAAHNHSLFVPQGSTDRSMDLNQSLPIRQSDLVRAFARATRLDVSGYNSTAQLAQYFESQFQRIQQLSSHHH
# [8] = target: T3, Zinc finger protein mex-5 (Caenorhabditis elegans, UniProt Q9XUB2); assay: MEX-5/TCR-2 RNA interaction inhibitors, dose response, biochemical, C. elegans, fluorescence polarization (AID 1960)
# T3 sequence (Q9XUB2 whole entry): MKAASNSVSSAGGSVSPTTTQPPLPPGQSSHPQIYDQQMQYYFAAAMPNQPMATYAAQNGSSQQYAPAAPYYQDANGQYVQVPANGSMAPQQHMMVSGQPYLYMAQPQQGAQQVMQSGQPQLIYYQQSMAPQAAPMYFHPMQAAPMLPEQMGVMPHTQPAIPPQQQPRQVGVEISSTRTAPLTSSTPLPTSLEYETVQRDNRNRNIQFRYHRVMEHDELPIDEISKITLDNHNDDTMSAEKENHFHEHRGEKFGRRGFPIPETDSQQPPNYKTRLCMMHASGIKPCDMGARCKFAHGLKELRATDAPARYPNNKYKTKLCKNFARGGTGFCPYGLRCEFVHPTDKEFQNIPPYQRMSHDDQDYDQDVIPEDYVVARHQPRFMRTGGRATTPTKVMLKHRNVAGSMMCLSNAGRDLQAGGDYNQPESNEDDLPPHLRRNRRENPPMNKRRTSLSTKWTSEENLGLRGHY
# [9] = Luminescence Cell-Based Dose Confirmation HTS to Identify Activators of 5'UTR Stem-Loop Driven Alpha-Synuclein mRNA Translation in H4 Neuroglioblastoma Cells. [Related pubchem assays: 1829 (Project Summary), 1814 (Primary HTS)]; assay type: functional
# [10] = Luminescence Cell-Based Dose Response HTS to Identify Activators of Luciferase Translation or Activity in H4 […] Cells. [Related pubchem assays: 1829 (Project Summary), 1814 (Primary HTS)]; assay type: functional
# [11] = test system: H4; assay: Luminescence Cell-Based Dose Response HTS to Identify Activators of 5'UTR Stem-Loop Driven Prion Protein mRNA Translation in H4 Neuroglioblastoma Cells. [Related pubchem assays: 1829 (Project Summary), 1814 (Primary HTS)]; assay type: functional; conditions: Homo sapiens
# [12] = inhibitors of intracellular T. cruzi replication, confirmation, NIH3T3 host cells, beta-gal luminescence (AID 2044); assay type: functional, cell-based;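 further: intracellular parasites grown in NIH/3T3 mouse fibroblasts as host cells; luminescent beta-galactosidase reporter signal from transgenic T. cruzi replicating inside host cells; inhibitors lower the luminescence signal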
# [13] = cytotoxicity toward NIH3T3 fibroblasts, dose response, counter-screen, cell-based, ATP luminescence, mouse fibroblasts (AID 2010); assay type: functional;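 further: cells exposed to compound for about 90 hours before reading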
# [14] = Luminescence Cell-Based Dose Retest to Confirm Inhibitors of Cancer Stem Cells. [Related pubchem assays (depositor defined):AID2717, AID2721]; assay type: functional; conditions: Homo sapiens
# [15] = target: Cytochrome P450 2D6 (Homo sapiens, UniProt P10635);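 further: CYP2D6 member of a cytochrome P450 panel assay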
# [16] = target: T4, Heat shock factor protein 1 (Mus musculus, UniProt P38532); assay: inhibition of MG132-induced HSE-luciferase signal, confirmation, cell-based, NIH3T3, luminescence, dose retest (AID 2382); assay type: functional;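 further: NIH3T3 fibroblasts with HSF1-driven luciferase reporter stressed by proteasome inhibitor MG132; luminescence from HSF1-driven luciferase expression after 8 hours of MG132 stress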
# T4 sequence (P38532 whole entry): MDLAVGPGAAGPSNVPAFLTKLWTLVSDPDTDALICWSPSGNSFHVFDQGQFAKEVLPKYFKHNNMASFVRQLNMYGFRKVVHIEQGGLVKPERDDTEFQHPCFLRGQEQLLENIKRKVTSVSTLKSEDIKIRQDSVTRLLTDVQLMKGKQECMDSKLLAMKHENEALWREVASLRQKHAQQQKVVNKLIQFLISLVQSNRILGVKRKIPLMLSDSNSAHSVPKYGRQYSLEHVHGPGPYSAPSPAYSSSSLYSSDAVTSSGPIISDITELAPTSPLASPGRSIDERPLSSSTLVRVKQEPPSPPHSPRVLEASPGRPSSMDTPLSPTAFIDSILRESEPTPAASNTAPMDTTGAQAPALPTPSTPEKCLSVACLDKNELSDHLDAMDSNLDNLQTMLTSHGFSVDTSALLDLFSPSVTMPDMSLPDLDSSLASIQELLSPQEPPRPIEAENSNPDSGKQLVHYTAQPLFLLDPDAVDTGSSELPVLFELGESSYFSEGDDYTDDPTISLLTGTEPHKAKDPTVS
# [17] = target: Cytochrome P450 2C9 (Homo sapiens, UniProt P11712)
# [18] = target: T5, Rac GTPase-activating protein 1 (Homo sapiens, UniProt Q9H0H5); assay: MgcRacGAP GTPase-activating activity inhibitors, confirmation, biochemical, ADP Hunter fluorescence, primary and confirmatory (AID 624330); assay type: functional
# T5 sequence (Q9H0H5 whole entry): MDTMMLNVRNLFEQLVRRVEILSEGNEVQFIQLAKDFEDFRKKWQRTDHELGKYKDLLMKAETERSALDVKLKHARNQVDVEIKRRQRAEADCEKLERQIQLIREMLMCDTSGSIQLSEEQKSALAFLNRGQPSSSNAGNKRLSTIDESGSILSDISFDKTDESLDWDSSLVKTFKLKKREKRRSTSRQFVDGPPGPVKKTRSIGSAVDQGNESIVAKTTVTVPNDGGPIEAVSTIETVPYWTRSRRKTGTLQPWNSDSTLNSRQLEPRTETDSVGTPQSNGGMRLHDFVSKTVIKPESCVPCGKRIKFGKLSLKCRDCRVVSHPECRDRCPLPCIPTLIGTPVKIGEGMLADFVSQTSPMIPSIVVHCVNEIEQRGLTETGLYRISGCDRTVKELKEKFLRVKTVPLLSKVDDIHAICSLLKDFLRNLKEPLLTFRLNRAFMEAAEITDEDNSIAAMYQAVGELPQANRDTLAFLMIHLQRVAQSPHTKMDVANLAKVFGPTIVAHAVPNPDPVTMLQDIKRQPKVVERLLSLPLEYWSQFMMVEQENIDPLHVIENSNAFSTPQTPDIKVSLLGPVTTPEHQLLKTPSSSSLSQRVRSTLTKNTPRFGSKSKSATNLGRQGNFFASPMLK
# Chain of Luciferin 4-monooxygenase (P08659 whole entry): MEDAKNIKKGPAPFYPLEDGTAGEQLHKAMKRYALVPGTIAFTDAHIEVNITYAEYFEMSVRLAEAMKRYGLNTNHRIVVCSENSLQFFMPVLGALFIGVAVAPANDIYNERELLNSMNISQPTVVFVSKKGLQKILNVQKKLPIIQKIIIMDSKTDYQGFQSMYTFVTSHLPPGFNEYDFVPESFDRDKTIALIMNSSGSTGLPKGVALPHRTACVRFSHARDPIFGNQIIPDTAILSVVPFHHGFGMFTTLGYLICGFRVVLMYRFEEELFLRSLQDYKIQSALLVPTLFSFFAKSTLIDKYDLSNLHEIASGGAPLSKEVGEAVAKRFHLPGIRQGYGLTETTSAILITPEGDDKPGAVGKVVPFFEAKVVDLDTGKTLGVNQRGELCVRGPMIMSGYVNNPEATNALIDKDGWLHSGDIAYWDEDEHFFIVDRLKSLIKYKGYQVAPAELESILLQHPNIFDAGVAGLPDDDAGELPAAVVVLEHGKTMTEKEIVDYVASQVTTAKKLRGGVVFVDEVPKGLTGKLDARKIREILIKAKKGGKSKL
# Chain of Cytochrome P450 2C9 (P11712 whole entry): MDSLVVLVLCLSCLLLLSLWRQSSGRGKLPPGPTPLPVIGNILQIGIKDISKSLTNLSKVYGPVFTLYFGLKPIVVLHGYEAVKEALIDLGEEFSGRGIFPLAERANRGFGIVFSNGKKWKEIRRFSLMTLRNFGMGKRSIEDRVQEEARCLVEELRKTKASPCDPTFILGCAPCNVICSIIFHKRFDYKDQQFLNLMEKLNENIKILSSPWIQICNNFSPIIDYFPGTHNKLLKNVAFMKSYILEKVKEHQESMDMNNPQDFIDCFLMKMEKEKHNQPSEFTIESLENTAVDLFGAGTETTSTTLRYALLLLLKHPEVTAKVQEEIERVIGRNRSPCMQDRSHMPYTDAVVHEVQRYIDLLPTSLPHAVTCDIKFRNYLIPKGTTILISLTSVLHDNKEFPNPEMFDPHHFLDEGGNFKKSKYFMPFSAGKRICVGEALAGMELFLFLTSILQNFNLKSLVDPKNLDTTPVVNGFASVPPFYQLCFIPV
# Chain of Cytochrome P450 2D6 (P10635 whole entry): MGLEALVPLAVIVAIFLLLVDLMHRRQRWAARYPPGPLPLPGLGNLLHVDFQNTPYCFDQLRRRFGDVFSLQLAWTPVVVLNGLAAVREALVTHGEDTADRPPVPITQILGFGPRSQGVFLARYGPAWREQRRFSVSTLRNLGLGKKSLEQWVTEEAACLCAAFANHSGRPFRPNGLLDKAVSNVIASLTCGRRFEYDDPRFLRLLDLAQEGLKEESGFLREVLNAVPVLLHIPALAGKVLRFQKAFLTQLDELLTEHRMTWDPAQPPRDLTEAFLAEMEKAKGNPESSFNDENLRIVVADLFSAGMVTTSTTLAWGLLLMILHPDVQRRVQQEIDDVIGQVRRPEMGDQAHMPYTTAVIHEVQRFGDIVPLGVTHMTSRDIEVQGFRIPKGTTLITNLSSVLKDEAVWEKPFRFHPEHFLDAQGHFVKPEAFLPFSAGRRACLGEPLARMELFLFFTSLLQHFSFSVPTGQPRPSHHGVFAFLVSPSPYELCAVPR
SMILES,EC50 [1],EC50 [2],EC50 [3],EC50 [9],EC50 [10],EC50 [11],also measured
CCc1sc(N(C(=O)Cc2ccccc2)c2ccc(F)cc2)nc1-c1ccccc1,> 150 µM (not active),11.8 µM (active),> 150 µM (not active),,,,
Cc1cccc(NC(S)=Nc2ccc3c[nH]nc3c2)c1,,,,,,,EC50 [4]: > 112 µM (not active); EC50 [5]: > 112 µM (not active); AC50 [6]: > 260 µM (inactive)
CC(C)C[C@H](NC(=O)N1CC(=O)Nc2ccccc21)C(=O)N[C@H](C(=O)O)c1ccccc1,> 150 µM (not active),> 150 µM (not active),> 150 µM (not active),,,,
O=C(c1ccc(F)cc1)N1CCN(C2CCC(c3ccccc3)CC2)CC1 (configuration not stated),,,,,,,EC50 [7]: > 300 µM (not active); EC50 [8]: > 300 µM (not active)
c1ccn2c(c1)nc1c2nc2ccccn21,,,,7.67 µM (active),25.1 µM (active),> 120 µM (not active),
CCCCn1c(CCCNC(=O)c2ccco2)nc2ccccc21,> 150 µM (not active),> 150 µM (not active),> 150 µM (not active),,,,
Oc1nc(CN2CCN(C/C=C/c3ccccc3)CC2)nc2ccccc12,,,,> 120 µM (not active),> 120 µM (not active),> 120 µM (not active),EC50 [12]: 0.637 µM (active); EC50 [13]: > 60 µM (not active)
C=CCOc1c(Cl)cc(C(=S)N2CCCC2)cc1OCC,,,,> 120 µM (not active),> 120 µM (not active),30.3 µM (active),
Cc1cc(C(=O)COC(=O)Cc2nnc(O)c3ccccc23)c(C)n1-c1ccc2c(c1)OCCO2,,,,> 120 µM (not active),> 120 µM (not active),71.5 µM (active),EC50 [12]: 2.28 µM (active); EC50 [13]: > 60 µM (not active)
COC(=O)/C(C#N)=C/c1c(Oc2cc(C)cc(C)c2)nc2c(C)cccn2c1=O,,,,,,,EC50 [7]: 104 µM (active); EC50 [8]: > 300 µM (not active)
Cc1ccc2cc(CN(Cc3cccs3)C(=O)c3ccco3)c3nnnn3c2c1C,2.28 µM (active),> 150 µM (not active),31.7 µM (active),,,,
O=C(C1CCCN(c2ncnc3c2nc2n3CCCCC2)C1)N1CCN(c2ccccc2)CC1 (configuration not stated),,,,> 120 µM (not active),> 120 µM (not active),> 120 µM (not active),
CC(C)(C)c1cc(C(=O)NNc2cc(C(F)(F)F)ccc2Cl)n(Cc2ccccc2)n1,3.24 µM (active),> 150 µM (not active),8.74 µM (active),,,,AC50 [14]: 3.81 µM (active)
COc1ccc(NC(=O)CCl)cn1,,,,,,,EC50 [7]: 9.67 µM (active); EC50 [8]: 8.06 µM (active)
Clc1ccc(N2COC3c4cccc5cccc(c45)C32)cc1 (configuration not stated),17.4 µM (active),14.2 µM (active),> 150 µM (not active),,,,
Fc1ccc(C2=CC(c3ccco3)n3ncnc3N2)cc1 (configuration not stated),,,,,,,EC50 [7]: 14.7 µM (active); EC50 [8]: 12.8 µM (active)
COCC(=O)N1CCC2(CCN(Cc3ccccc3)CC2)CC1,,,,,,,AC50 [15]: 25.1 µM (inconclusive)
COCCNC(=O)C1Nc2ccc(OC(F)(F)F)cc2C2C=CCC12 (configuration not stated),,,,,,,EC50 [7]: > 300 µM (not active); EC50 [8]: > 300 µM (not active)
COc1cc2c(cc1NC(=O)CN1CCN(S(=O)(=O)c3ccccc3F)CC1)oc1ccccc12,,,,> 120 µM (not active),> 120 µM (not active),> 120 µM (not active),
CC1Cc2nc(SCC(=O)Nc3ccc4c(c3)OCO4)n(Cc3ccccc3)c(=O)c2S1 (configuration not stated),,,,10.8 µM (active),5.9 µM (active),13.2 µM (active),
CCc1ccc2[nH]c(O)c(N=Nc3nc(-c4ccccc4)cs3)c2c1,9.51 µM (active),> 150 µM (not active),27.3 µM (active),,,,EC50 [16]: > 195 µM (not active); AC50 [17]: 39.8 µM (inconclusive)
CC(C)[C@@H]1COC(c2cccc(C3=N[C@H](C(C)C)CO3)c2)=N1,,,,> 120 µM (not active),71.1 µM (active),10.6 µM (active),
Cc1ccc(O)c(/C=N/NC(=O)Cc2ccc(Cl)cc2)c1,3.25 µM (active),> 150 µM (not active),13.6 µM (active),,,,
COc1cc(/C=N/c2oc(-c3ccccc3)cc2C#N)ccc1O,,,,,,,EC50 [7]: > 300 µM (not active); EC50 [8]: > 300 µM (not active)
Nc1c(Cl)ncnc1N/N=C/c1ccc(O)cc1,,,,,,,EC50 [4]: 7.55 µM (active); EC50 [5]: 0.779 µM (active); IC50 [18]: 16.5 µM (active)
CC(C)C(C(=O)Nc1nccs1)c1ccc(Cl)cc1 (configuration not stated),12.7 µM (active),> 150 µM (not active),> 150 µM (not active),,,,
